From patent US20260042854A1, “ANTI-GLP-1R ANTIBODIES AND USES THEREOF” (SCIWIND BIOSCIENCES USA CO., LTD, priority 2022, published 2026)

Assays:
Mouse GLP-1R = biological target: T1, Mouse GLP-1R (Mus musculus, UniProt O35659); assay: cAMP HTRF antagonism assay in HEK293 transfected with mouse GLP-1R; format: cell-based
T1 construct: expressed in transfected cells; host or cells: HEK293 (ATCC, CRL-1573)
T1 sequence (O35659 22-463): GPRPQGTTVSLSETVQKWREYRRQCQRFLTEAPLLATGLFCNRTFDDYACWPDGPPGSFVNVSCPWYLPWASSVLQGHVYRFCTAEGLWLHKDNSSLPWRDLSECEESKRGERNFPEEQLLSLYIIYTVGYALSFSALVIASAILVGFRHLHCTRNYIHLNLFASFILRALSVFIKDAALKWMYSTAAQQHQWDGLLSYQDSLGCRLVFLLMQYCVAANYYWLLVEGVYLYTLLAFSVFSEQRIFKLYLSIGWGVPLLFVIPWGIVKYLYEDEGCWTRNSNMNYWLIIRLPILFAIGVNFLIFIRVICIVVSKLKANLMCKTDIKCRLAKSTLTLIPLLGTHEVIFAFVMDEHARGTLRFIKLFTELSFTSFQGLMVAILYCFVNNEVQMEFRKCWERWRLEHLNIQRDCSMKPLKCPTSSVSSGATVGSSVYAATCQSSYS
Description: HEK293 cells (ATCC, cat no. CRL-1573) were transfected with GLP-1R_pcDNA3.1/G418 (+) plasmids which can transcribe the mRNA of human (NM_002062.5), monkey (JN033215.1) and mouse (NM_021332.2) GLP-1R polypeptide. […] The plate was further incubated at 37° C. for 120 minutes. Finally, the CAMP level was measured with cAMP HTRF kit (Cisbio, 62AM4PEB). […] The data were analyzed by four-parameter curve fitting with GraphPad Prism 9, and IC50 was calculated.

C57BL/6 mice = assay: IPGTT in C57BL/6 mice (exogenous GLP-1 added); format: in vivo, mouse; details: GLP-1 25.0 nmol/kg i.p. with glucose
Description: 7-9-week-old male C57BL/6 mice (22-26 g) were assigned into 5 groups, with 5 mice in each group, and the mice in each group were treated according to the scheme shown in Table 6. The antibody treatment groups were given a single subcutaneous injection, and were fasted for 18 hours after the administration. […] The blood glucose levels of the mice before (0 min) and 15 min, 30 min. 60 min, 90 min, 120 min and 180 min after the administration of glucose were measured with blood glucose meter. The AUCs of the blood glucose-time curves of each mouse from 0 to 180 min were calculated with GraphPad Prism 9. The blood glucose levels and the AUCs were shown in Mean±SEM and the differences among groups were compared. Statistical differences were analyzed with One-way ANOVA. […] The significance markers were not shown in the line chart since they would overlap and be difficult to distinguish.

humanized GLP-1R mice = assay: IPGTT in humanized GLP-1R mice (exogenous GLP-1 added); format: in vivo, mouse; details: GLP-1 25 nmol/kg i.p. with glucose
Description: 10-week-old female humanized GLP-1R mice (25-28 g, Shanghai Model Organisms Center Inc.) were assigned into 5 groups, with 5 mice in each group, and each group was treated according to the scheme in Table 6. The antibody treatment groups were subcutaneously injected with antibody, while the other groups were subcutaneously injected with vehicle (PBS) once a week for 2 consecutive weeks. IPGTTs were performed one day after the administration. The first subcutaneous administration of the antibody was on Day 0, and the second subcutaneous administration was on Day 7.
The blood glucose levels of the mice before (0 min) and 15 min, 30 min, 60 min, 90 min, 120 min and 180 min after the administration of glucose were measured with blood glucose meter. The AUCs of the blood glucose-time curves of each mouse from 0 to 180 min were calculated with GraphPad Prism 9. […] Statistical differences were analyzed with One-way ANOVA. […]
10-week-old female humanized GLP-1R mice (25-28 g) were assigned into 5 groups, with 5 mice in each group, and each group was treated according to the scheme in Table 10. […] The blood glucose levels of the mice before (0 min) and 15 min, 30 min, 60 min, 90 min, 120 min and 180 min after the administration of glucose were measured with blood glucose meter. The AUCs of the blood glucose-time curves of each mouse were calculated with GraphPad Prism 9. […]

| Substance | antagonism of activation of mouse GLP-1R by GLP-1 (in words) (Mouse GLP-1R) | effect of GLP-1 on blood glucose levels (in words) (C57BL/6 mice) | effect of GLP-1 on blood glucose levels (in words) (humanized GLP-1R mice) |
| --- | --- | --- | --- |
| exendin 9-39 [Avexitide, reference compound] | does antagonize the activation of mouse GLP-1R by GLP-1 |  |  |
| GLP-1: native GLP-1 (7-37aa, R&D Systems, cat no. 5374/1), agonist used to activate GLP-1R (HAEGTFTSDVSSYLEGQAAKEFIAWLVKGRG; Glucagon-like peptide 1(7-37); UniProt P01275 98-128, looked up) [reference compound] |  | could lower blood glucose levels | can effectively lower the blood glucose levels |
